According to patent US20090081197A1 (Palatin Technologies, Inc., priority 2007, published 2009):
Non-standard residues stand in square brackets, D forms with d. Residues, ends and D or L forms follow the SMILES beside them. *: point of attachment. dPhe(4-Cl) = N[C@H](Cc1ccc(Cl)cc1)C(=O)O; Heptanoyl = CCCCCCC(=O)*; Bn = c1ccc(C*)cc1

Assays:
MC4-R [1] = biological target: T1, MC4-R (Homo sapiens, UniProt P32245); assay: cAMP agonist stimulation, high receptor density system (10 ng/mL doxycycline); details: for Efficacy/Intrinsic Activity: NDP-α-MSH maximal cAMP = 1.0
T1 sequence (P32245 whole entry): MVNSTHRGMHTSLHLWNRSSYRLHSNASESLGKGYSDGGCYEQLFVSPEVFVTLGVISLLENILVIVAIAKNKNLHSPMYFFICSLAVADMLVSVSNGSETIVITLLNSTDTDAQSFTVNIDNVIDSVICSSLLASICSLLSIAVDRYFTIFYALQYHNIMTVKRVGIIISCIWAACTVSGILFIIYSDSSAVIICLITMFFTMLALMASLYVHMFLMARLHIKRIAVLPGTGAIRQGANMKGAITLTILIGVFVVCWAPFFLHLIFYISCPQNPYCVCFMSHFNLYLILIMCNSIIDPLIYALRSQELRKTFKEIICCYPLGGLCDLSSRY

MC4-R [2] = biological target: T1, MC4-R; assay: cAMP functional activity assay in HEK-293 cells, normal system; format: cell-based; design: expressed in transfected cells; host or cells: HEK-293; details: for functional status at MC4-R in cAMP assay: normal system, 1 μM concentration where stated; for intrinsic activity at MC4-R in a normal system / EC50: normal receptor density system; for intrinsic activity at MC4-R in a normal system: NDP-α-MSH = 1.0
Description: General method for EC50 determination in functional activity assay. […] Data analysis and EC50 values were determined using nonlinear regression analysis with Prism Graph-Pad software.
Functional status. The agonist/antagonist status with respect to MC1-R, MC-3R, MC4-R and MC5-R of certain compounds of the invention was determined. Antagonistic activity was determined by measuring the inhibition of α-MSH-induced or NDP-α-MSH-induced cAMP levels following exposure to graded doses of compounds as in the preceding descriptions.
Assay for agonist. Evaluation of the molecules to elicit a functional response in HEK-293 cells expressing MC4-R was accomplished by measuring the accumulation of intracellular cAMP following treatment. Confluent HEK-293 cells expressing MC4-R receptors were detached by enzyme free cell suspension buffer. […] The cells were plated in a 96 well plates at a density of 0.5×10^5 cells per well and pre-incubated for 30 minutes. Test compounds (dissolved in dimethylsulfoxide (DMSO) at a concentration range of 0.05-5000 nM) were added in a total assay volume of 200 μL and cells were incubated for 1 hour at 37° C. The concentration of DMSO was always held at 1% in the assay mixture. NDP-α-MSH was used as the reference agonist. […] Data analysis and EC50 values were determined by using nonlinear regression analysis with Prism Graph-Pad software. […] Compounds with a response ratio of less than 0.1 (10%) were evaluated for antagonistic activity.

MC3-R = MC3-R (Homo sapiens, UniProt P41968); assay: Competitive inhibition assay using [I^125]-NDP-α-MSH, hMC3-R membranes; format: binding; design: expressed in transfected cells; details: for inhibition at 1 µM: 1 μM test compound, read-out: Inhibition at 1 μM (NDP-α-MSH) In Normal System, MC3-R; for Ki: read-out: Ki (nM) (NDP-α-MSH) In Normal System, MC3-R
Chain of MC3-R (P41968 whole entry): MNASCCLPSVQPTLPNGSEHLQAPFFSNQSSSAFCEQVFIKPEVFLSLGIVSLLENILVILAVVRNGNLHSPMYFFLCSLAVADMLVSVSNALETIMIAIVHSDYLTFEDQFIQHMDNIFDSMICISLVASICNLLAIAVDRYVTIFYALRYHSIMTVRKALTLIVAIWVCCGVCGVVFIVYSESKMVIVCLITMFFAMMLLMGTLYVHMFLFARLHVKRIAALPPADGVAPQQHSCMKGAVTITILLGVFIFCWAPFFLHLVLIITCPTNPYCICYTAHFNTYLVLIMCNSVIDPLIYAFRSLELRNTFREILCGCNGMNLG
Description: (§1) The ligand concentration used was 0.4 nM for MC3-R and MC5-R, 0.2 nM for MC4-R and 0.1 nM for B16-F10 (MC1-R) membranes. In certain experiments, hMC1-R was also employed.
(§2) The assay mixture was incubated for 90 minutes at room temperature, then filtered and the membranes washed three times with ice cold buffer. The filter was dried and counted in a gamma counter for remaining radioactivity bound to the membranes. […] Each assay was conducted in triplicate and the actual mean values are described, with results less than 0% reported as 0%.

MC4-R [3] = biological target: T1, MC4-R; assay: Competitive inhibition assay using [I^125]-NDP-α-MSH, hMC4-R membranes; format: binding; design: host or cells: TREx-293 (HEK-293 stably expressing Tet repressor); details: for inhibition at 1 µM: 1 μM test compound, read-out: Inhibition at 1 μM (NDP-α-MSH) In Normal System, MC4-R; for Ki: read-out: Ki (nM) (NDP-α-MSH) In Normal System, MC4-R
Description: as §1, §2

MC1-R = biological target: T2, MC1-R (Mus musculus, UniProt Q01727); assay: Competitive inhibition assay using [I^125]-NDP-α-MSH, B-16 mouse melanoma cell membranes; format: binding; details: for inhibition at 1 µM: 1 μM test compound, read-out: Inhibition at 1 μM (NDP-α-MSH) In Normal System, MC1-R; for Ki: read-out: Ki (nM) (NDP-α-MSH) In Normal System, MC1-R
T2 construct: B-16 mouse melanoma cells (containing MC1-R); endogenous in cells
T2 sequence (Q01727 whole entry): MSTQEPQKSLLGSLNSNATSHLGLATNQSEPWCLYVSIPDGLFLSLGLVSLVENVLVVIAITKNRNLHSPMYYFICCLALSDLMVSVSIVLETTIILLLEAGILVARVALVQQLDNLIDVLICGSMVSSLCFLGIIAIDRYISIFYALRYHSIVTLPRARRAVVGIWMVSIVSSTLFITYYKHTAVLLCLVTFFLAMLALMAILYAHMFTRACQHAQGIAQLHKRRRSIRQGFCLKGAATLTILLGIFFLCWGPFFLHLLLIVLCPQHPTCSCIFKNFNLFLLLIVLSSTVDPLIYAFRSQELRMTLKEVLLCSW
Description: as §1, §2

MC5-R = MC5-R (Homo sapiens, UniProt P33032); assay: Competitive inhibition assay using [I^125]-NDP-α-MSH, hMC5-R membranes; format: binding; design: expressed in transfected cells; details: for inhibition at 1 µM: 1 μM test compound, read-out: Inhibition at 1 μM (NDP-α-MSH) In Normal System, MC5-R; for Ki: read-out: Ki (nM) (NDP-α-MSH) In Normal System, MC5-R
Chain of MC5-R (P33032 whole entry): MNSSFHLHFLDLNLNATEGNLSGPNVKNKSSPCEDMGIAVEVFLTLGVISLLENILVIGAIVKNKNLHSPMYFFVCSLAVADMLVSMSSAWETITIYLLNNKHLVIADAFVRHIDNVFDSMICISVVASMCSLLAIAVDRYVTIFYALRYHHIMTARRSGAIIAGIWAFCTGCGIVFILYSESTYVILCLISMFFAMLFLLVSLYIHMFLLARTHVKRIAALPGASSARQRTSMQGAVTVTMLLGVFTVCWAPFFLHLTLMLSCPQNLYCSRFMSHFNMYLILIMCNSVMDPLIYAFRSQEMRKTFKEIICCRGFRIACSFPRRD
Description: as §1, §2

[4] = ICV food intake and body weight change; format: in vivo; details: rat, 1 nmol, 24 hours
Description: ICV food intake and body weight change. Change in food intake and body weight was evaluated for selected compounds. Rats with indwelling intracerebroventricular cannulas (ICV rats) were obtained from Hilltop Lab Animals, Inc. (Scottdale, Pa.). Animals were individually housed in conventional plexiglass hanging cages and maintained on a controlled 12 hour on/off light cycle. Water and powdered (LabDiet, 5P00 Prolab RMH 3000) or pelleted (Harlan Teklad 2018 18% Protein Rodent Diet) food was provided ad libitum. For 1 week before treatment, 24-hour food intake and body weight change was recorded to assess a baseline for the group during vehicle treatment. The rats were dosed ICV with vehicle or selected compounds (1-3 nmol). The changes in body weight and food intake for the 24 hour period after dosing were determined. The changes in body weight and food intake for the 48 hour and 72 hour periods after dosing were also measured to determine reversal of changes in body weight and food intake effects back to baseline levels.

MC4-R [5] = biological target: T1, MC4-R; assay: cAMP agonist stimulation, low receptor density system (0.1 ng/mL doxycycline); details: 0.1 ng/mL doxycycline, low receptor density hMC4-R system; NDP-α-MSH maximal cAMP = 1.0
[6] = Penile erection induction in male rats; format: in vivo; details: rat, IV; for penile erection response: 1 μg/kg
Description: Penile erection induction. The ability of compounds to induce penile erection (PE) in male rats was evaluated with selected compounds. Male Sprague-Dawley rats weighing 200-250 g were kept on a 12 hour on/off light cycle with food and water ad libitum. All behavioral studies were performed between 10 A.M. and 5 P.M. Groups of 4-8 rats were treated with compounds at a variety of doses via intravenous (IV) or intracerebroventricular (ICV) routes. Immediately after treatment, rats were placed into individual polystyrene cages (27 cm long, 16 cm wide, and 25 cm high) for behavioral observation. […] Controls utilized carrier without the test compound. Mean PEs in control groups were 0.17 to 0.5 PEs/rat by IV administration in various experiments and between 1-2 PEs/rat by ICV administration in various experiments, and thus only PEs with statistically relevant increases over the mean PEs in control groups are reported as inducing PEs. A PE response in IV animals greater than the mean PEs in control groups but less than 1.0 PEs/rat, particularly with less than all animals responding, was treated as equivocal, and not necessarily distinguishable from vehicle control. In selected instances, compounds with equivocal results in the IV model were tested for penile response in an ICV model, and compounds without a statistically relevant increase over the mean PEs in ICV control groups were determined to not induce PEs.

[7] = IP (and IN) food intake, mice; format: in vivo; details: mouse, IP, 10 mg/kg, 4 hours; read-out: maximal decrease in food intake
Description: IV and IP food intake and body weight change. Change in food intake and body weight was evaluated for selected compounds. Male Sprague-Dawley rats or male C57BL/6 mice were utilized. Animals were individually housed in conventional plexiglass hanging cages and maintained on a controlled 12 hour on/off light cycle. Water and powdered (LabDiet, 5P00 Prolab RMH 3000) or pelleted (Harlan Teklad 2018 18% Protein Rodent Diet) food was provided ad libitum. For 1 week before treatment, 24-hour food intake and body weight change was recorded to assess a baseline for the group during vehicle treatment. The rats were dosed IV with vehicle or selected compounds (0.5-3 mg/kg, and in some cases up to 10 mg/Kg) or dosed intraperitoneally (IP) with vehicle or selected compounds (0.5-10 mg/kg, and in some cases up to 50 mg/kg). Mice were dosed IP. […] The changes in body weight and food intake for the 48 hour and 72 hour periods after dosing were also measured to determined reversal of changes in body weight and food intake effects back to baseline levels.

[8] = 10 ng/mL doxycycline, high receptor density hMC4-R system

Compound	Efficacy/Intrinsic Activity (MC4-R [1]; [8])	functional status at MC4-R in cAMP assay (MC4-R [2])	inhibition at 1 µM (MC3-R) [%]	inhibition at 1 µM (MC4-R [3]) [%]	inhibition at 1 µM (MC1-R) [%]	inhibition at 1 µM (MC5-R) [%]	decrease in body weight [4] [%]	decrease in food intake [4] [%]	Efficacy/Intrinsic Activity (MC4-R [5])	Penile Erection IV [6]	penile erection response [6]	EC50 (MC4-R [1]) [nM]	intrinsic activity at MC4-R in a normal system (MC4-R [2])	EC50 (MC4-R [1]; [8]) [nM]	EC50 (MC4-R [2]) [nM]	Ki (MC3-R) [nM]	Ki (MC4-R [3]) [nM]	Ki (MC1-R) [nM]	Ki (MC5-R) [nM]	inhibition in vivo at 10 mg/kg [7] [%]
NCCCC[C@H]1C(=O)N(CCc2ccc3ccccc3c2)CCN1C(=O)[C@@H](Cc1ccc(Cl)cc1Cl)NC(=O)c1ccc(Oc2ccccc2)cc1 [Example 21, N—[(R)-2-[(S)-2-(4-Amino-butyl)-4-(2-naphthalen-2-yl-ethyl)-3-oxo-piperazin-1-yl]-1-(2,4-dichloro-benzyl)-2-oxo-ethyl]-4-phenoxy-benzamide]	None	no intrinsic activity (intrinsic activity below 0.1 (10%) is classified as inactive or having no intrinsic activity)	51	99	35	51	1	2	None	No	no penile erection response									
CCCCCCC(=O)N[C@H](C(=O)N[C@H](Cc1ccc(Cl)cc1)C(=O)N[C@@H](CCCNC(=N)N)C(=O)N[C@@H](Cc1c[nH]c2ccccc12)C(N)=O)[C@@H](C)OCc1ccccc1 [Example 23, Heptanoyl-Thr(Bzl)-D-Phe(4-Cl)-Arg-Trp-NH2] (Heptanoyl-T(Bn)[dPhe(4-Cl)]RW-NH2)	0.75	partial agonist (intrinsic activity between 0.1 (10%) and 0.7 (70%) is classified as a partial agonist)					1	18	None	No	no penile erection response	184	0.4							
(E)-N—[(R)-2-[(S)-2-(4-Amino-butyl)-4-(2-naphthalen-2-yl-ethyl)-3-oxo-piperazin-1-yl]-1-(2,4-dichloro-benzyl)-2-oxo-ethyl]-3-phenyl-acrylamide [Example 20]	0.38	partial agonist (intrinsic activity between 0.1 (10%) and 0.7 (70%) is classified as a partial agonist)					3	4	None	No	no penile erection response		0.2	215	112	648	6	502	398	
CC(=O)N[C@H](Cc1ccc2ccccc2c1)C(=O)N1C[C@@H](C)N(C(=O)Cc2ccc3ccccc3c2)C[C@@H]1CCCNC(=N)N [Example 32, N-{(R)-2-[(2S,5R)-2-(3-guanidino-propyl)-5-methyl-4-(2-naphthalen-2-yl-acetyl)-piperazin-1-yl]-1-naphthalen-2-ylmethyl-2-oxo-ethyl}-acetamide]			38	97	51	44									7	634	7	406	826	34
NCCCC[C@H]1C(=O)N(CCc2ccc3ccccc3c2)CCN1C(=O)[C@@H](Cc1ccc(Cl)cc1Cl)NC(=O)[C@@H]1CC[C@H](c2ccccc2)N1 [Example 18, (2S,5R)-5-phenyl-pyrrolidine-2-carboxylic acid [(R)-2-[(S)-2-(4-amino-butyl)-4-(2-naphthalen-2-yl-ethyl)-3-oxo-piperazin-1-yl]-1-(2,4-dichloro-benzyl)-2-oxo-ethyl]-amide]	0.29	partial agonist (intrinsic activity between 0.1 (10%) and 0.7 (70%) is classified as a partial agonist)	18	92	0	51	2	31	None			281	0.2				50	1370	789	
